Data published in ChEMBL document CHEMBL3997767, “Magnetic Microbead Affinity Selection Screening (MagMASS) of Botanical Extracts for Inhibitors of 15-Lipoxygenase” (J Nat Prod, 2016).
Active and inactive are the calls of the source. No cut-off for these calls is given here.

Columns and labels:
Glycine max [1] = experiment: Binding affinity to soybean p1 15-LOX at 100 pmol after 1 hr by magnetic microbead affinity selection screening method
[2] = target: T1, Polyunsaturated fatty acid lipoxygenase ALOX15 (Homo sapiens, UniProt P16050); experiment: Inhibition of 15-LOX (unknown origin)
T1 sequence (P16050 whole entry): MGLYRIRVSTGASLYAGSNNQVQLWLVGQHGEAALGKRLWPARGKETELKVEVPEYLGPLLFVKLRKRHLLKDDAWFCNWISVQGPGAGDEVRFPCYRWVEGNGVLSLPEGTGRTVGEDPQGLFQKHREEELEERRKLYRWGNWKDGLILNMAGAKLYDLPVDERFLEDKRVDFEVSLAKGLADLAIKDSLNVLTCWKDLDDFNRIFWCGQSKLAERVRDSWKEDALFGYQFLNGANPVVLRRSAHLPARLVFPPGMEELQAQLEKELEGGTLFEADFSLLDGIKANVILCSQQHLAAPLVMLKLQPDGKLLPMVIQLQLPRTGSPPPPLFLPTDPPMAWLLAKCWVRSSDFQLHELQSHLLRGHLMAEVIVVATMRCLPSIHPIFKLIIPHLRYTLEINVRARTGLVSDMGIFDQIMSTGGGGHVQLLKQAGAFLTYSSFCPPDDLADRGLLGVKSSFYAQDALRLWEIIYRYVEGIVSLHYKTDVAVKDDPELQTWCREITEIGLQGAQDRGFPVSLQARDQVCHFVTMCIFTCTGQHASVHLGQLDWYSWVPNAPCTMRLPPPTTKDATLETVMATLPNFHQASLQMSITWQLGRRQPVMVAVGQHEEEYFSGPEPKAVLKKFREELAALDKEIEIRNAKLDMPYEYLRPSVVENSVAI

Glycine max [3] = experiment: Binding affinity to soybean p1 15-LOX at 10 ug after 1 hr by magnetic microbead affinity selection screening method
[4] = Inhibition of 15-LOX in soybean using linoleic acid as substrate measured for 30 to 90 secs; set-up: species or system Glycine max

Row | Structure (SMILES) | Activity (Glycine max [1]) | IC50 [2] [µM] | Activity (Glycine max [3]) | IC50 [4] [µM]
1 | O=c1c2ccccc2[se]n1-c1ccccc1 | inactive |  |  | 
2 | O=c1cc(-c2ccc(O)c(O)c2)oc2cc(O)cc(O)c12 [LUTEOLIN] | Active | 5 |  | 
3 | C[C@@H]1O[C@@H](Oc2c(-c3ccc(O)c(O)c3)oc3cc(O)cc(O)c3c2=O)[C@H](O)[C@H](O)[C@H]1O [QUERCITRIN] |  |  | Active | 79.8
